Like-named read-outs stand apart in the source and are kept apart here.

Results on eleven compounds are retold here after US20260217700A1, “KINESIN KIF18A INHIBITOR AND USE THEREOF” (SHANGHAI APEIRON THERAPEUTICS COMPANY LIMITED, priority 2022, published 2026).

One experiment has as its system HT29 cells. The experiment in a line: CyQuant cell proliferation activity test. The experiment is classed as cell-based. As to conditions: read-out: HT-29 Cell Viability_IC50_nM. The method, then:
Materials and Cells: HT29 cells were purchased from Nanjing Cobioer Biosciences Co., Ltd.; RPMI-1640 medium, fetal bovine serum, Trypsin-EDTA (0.25%), 96-well plates, and CyQuant reagents were purchased from ThermoFisher (USA); DMSO was purchased from SIGMA (USA).
Cell Culture: Culture HT29 cells with RPMI-1640 containing 10% fetal bovine serum under the condition of 37° C. and 5% CO2. Only cells in the logarithmic growth phase can be used for the test.
Cell Proliferation Activity Test: Use the CyQuant reagent to detect the proliferation inhibitory activity of compounds on HT29 cells. The cell density was adjusted, and 100 μL per well was inoculated into a 96-well plate (HT29 at 2000 cells per well), then incubated overnight at 37° C. and 5% CO2. Add compounds of various target concentrations (initial concentration of 3000 nM, 3-fold dilution, 9 concentration gradients), and make the DMSO content 0.2%. The cell plate was incubated at 37° C. in 5% CO2 for 3 days. Incubate with CyQuant reagent for 1 h, read the plate by Envision, and calculate IC50 using XLFIT.

Experiment [1] deals with T1, Human KIF18A (amino acid sequence 1-417) (Homo sapiens, UniProt Q8NI77).
T1 construct: purchased Viva Biotech (Shanghai) Ltd
T1 sequence (Q8NI77 1-417): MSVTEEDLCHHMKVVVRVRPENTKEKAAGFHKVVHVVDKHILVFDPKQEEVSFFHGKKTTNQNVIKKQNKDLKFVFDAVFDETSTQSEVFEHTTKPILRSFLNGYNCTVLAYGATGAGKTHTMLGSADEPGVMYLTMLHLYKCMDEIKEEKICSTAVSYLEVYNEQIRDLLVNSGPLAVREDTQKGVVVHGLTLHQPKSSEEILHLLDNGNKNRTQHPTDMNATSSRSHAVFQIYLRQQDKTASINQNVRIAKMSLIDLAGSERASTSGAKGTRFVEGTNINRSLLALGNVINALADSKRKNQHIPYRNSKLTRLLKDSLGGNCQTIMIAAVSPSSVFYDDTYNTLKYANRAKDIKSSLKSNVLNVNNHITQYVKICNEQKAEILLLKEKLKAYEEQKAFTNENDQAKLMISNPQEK
The experiment in a line: Enzymatic activity test (ADP-Glo, microtubule-stimulated ATPase). The experiment is classed as biochemical. As to conditions: KIF18A 2.5 nM, ATP 25 μM, microtubules 60 μg/mL, 120 min at ambient temperature, ADP-Glo chemiluminescence; read-out: Enzyme Activity. The method, then: Materials: Human KIF18A (amino acid sequence 1-417) was purchased from Viva Biotech (Shanghai) Ltd.; the ADP-Glo™ protein kinase kit was acquired from Promega, USA; tubulin was sourced from Cytoskeleton, USA; and the 384-well assay plate and Envision multifunctional microplate reader were obtained from PerkinElmer, USA.
Enzymatic Activity Test: Dissolve the compound powder in DMSO to prepare a stock solution of 10 mM. Then perform gradient dilution for the compounds in the microplate to achieve a final concentration of […]. Then, add 2.5 μL each of tubulin, compound, ATP, and KIF18A protein to the microplate in sequence for reaction at ambient temperature for 120 min. The final concentrations in the enzyme reaction are 60 μg/mL for microtubules, 25 μM for ATP, and 2.5 nM for KIF18A protein. After the enzyme reaction, add 10 μL of ADP-GLO reaction reagent to each well and incubate at ambient temperature for 30 min. After that, add […] to each well and incubate at ambient temperature for 30 min in the dark. Finally, perform chemiluminescence detection using the PerkinElmer Envision.

A further experiment has as its system OVCAR3 cells. In words: Cell proliferation activity test (CyQUANT Direct). The experiment is classed as cell-based. To be noted: read-out: OVCAR-3 Cell Viability_IC50_nM. The method, then: Materials and Cells: OVCAR3 cells were purchased from Nanjing Cobioer Biosciences Co., Ltd. RPMI-1640 medium, fetal bovine serum, and the CyQUANT Direct Cell Proliferation Assay kit were purchased from Thermo Fisher Scientific, USA; 96-well cell culture plates were sourced from Corning, USA.
Cell Culture: Culture OVCAR3 cells with RPMI-1640 medium containing 10% fetal bovine serum and incubate them in a 5% CO2 incubator at 37° C. Only cells in the logarithmic growth phase can be used for the test.
Inoculate OVCAR3 cells into a 96-well cell culture plate at 90 μL per well and incubate overnight in a 5% CO2 incubator at 37° C. Dissolve the compound powder in DMSO to prepare a stock solution of 10 mM. Then perform gradient dilution for the compounds in the microplate to achieve a final concentration of 0-10 μM. Add 10 μL of cell culture medium containing compounds to each well to make the final DMSO content 0.2%. Incubate the cell plates in a 5% CO2 incubator at 37° C. for 3 days. Add 100 μL of CyQUANT detection reagent to each well, react at 37° C. for 60 min, and perform fluorescence detection using the PerkinElmer Envision.

Setting [2] is: Homo sapiens, HT-29, 72 h, HT29 at 2000 cells per well, 3 days incubation, CyQuant, initial concentration 3000 nM, DMSO 0.2%.
The mark [3] stands for this setting: Homo sapiens, OVCAR-3, 72 h, OVCAR3 cells, 3 days incubation, CyQUANT fluorescence detection, DMSO 0.2%.

As for `Cc1cc(NC(=O)c2c(N3CCC4(CC3)CC4)cc(NS(=O)(=O)CCO)n3ccnc23)nc(N2CCC(F)(F)CC2)n1` [Example 1, N-(2-(4,4-difluoropiperidin-1-yl)-6-methylpyrimidin-4-yl)-5-(2-hydroxyethylsulfonamido)-7-(6-azaspiro[2.5]octan-6-yl)imidazo[1,2-a]pyridine-8-carboxamide], the results for the IC50 (in the experiment with HT29 cells (setting [2]); in experiment [1]; with OVCAR3 cells (setting [3])) were 877 nM, 112 nM and 442 nM, respectively.

`Cc1cc(NC(=O)c2c(N3CCC4(CC3)CC4)cc(NS(=O)(=O)CCO)c3ncccc23)nc(N2CCC(F)(F)CC2)n1` [Example 5, N-(2-(4,4-difluoropiperidin-1-yl)-6-methylpyrimidin-4-yl)-8-(2-hydroxyethanesulfonamido)-6-(6-azaspiro[2.5]octan-6-yl)quinoline-5-carboxamide]: the IC50 in the experiment on HT29 cells (setting [2]) was 65 nM; in experiment [1], 134 nM; in the experiment with OVCAR3 cells (setting [3]), 36 nM.

As for `Cc1cc(NC(=O)c2c(N3CCC4(CC3)CC4)cc(NS(=O)(=O)CCO)c3ccoc23)nc(N2CCC(F)(F)CC2)n1` [Example 2, N-(2-(4,4-difluoropiperidin-1-yl)-6-methylpyrimidin-4-yl)-4-(2-hydroxyethylsulfonamido)-6-(6-azaspiro[2.5]octan-6-yl)-benzofuran-7-carboxamide], the values for the IC50 (in the experiment with HT29 cells (setting [2]); in experiment [1]; with OVCAR3 cells (setting [3])) were 50 nM, 29 nM and 25 nM, respectively.

Consider `CC(CO)S(=O)(=O)Nc1cc(N2CCC3(CC2)CC3)c(C(=O)Nc2cc3sc(N)nc3c(N3CCC(F)(F)CC3)c2F)c2ccccc12` (stereo not drawn) [Example 10, N-[2-amino-4-(4,4-difluoropiperidin-1-yl)-5-fluoro-1,3-benzothiazol-6-yl]-2-{6-azaspiro[2.5]octan-6-yl}-4-(1-hydroxypropane-2-sulfonamido)naphthalene-1-carboxamide], for which the IC50 worked out at 44 nM with HT29 cells (setting [2]), 180 nM in experiment [1] and 35 nM with OVCAR3 cells (setting [3]).

As for `Cc1cc(NC(=O)c2c(N3CCC4(CC3)CC4)cc(NS(=O)(=O)CCO)c3c2OCC3)nc(N2CCC(F)(F)CC2)n1` [Example 3, N-(2-(4,4-difluoropiperidin-1-yl)-6-methylpyrimidin-4-yl)-4-(2-hydroxyethylsulfonamido)-6-(6-azaspiro[2.5]octan-6-yl)-2,3-dihydrobenzofuran-7-carboxamide], the IC50 is 45 nM in the experiment on HT29 cells (setting [2]), 27 nM in experiment [1] and 28 nM with OVCAR3 cells (setting [3]).

With `Cc1cc(NC(=O)c2c(N3CCC4(CC3)CC4)cc(NS(=O)(=O)CCO)c3ccccc23)nc(N2CCC(F)(F)CC2)n1` [Example 4, N-(2-(4,4-difluoropiperidin-1-yl)-6-methylpyrimidin-4-yl)-4-(2-_hydroxyethylsulfonamido)-2-(6-azaspiro[2.5]octan-6-yl)-1-naphthamide], the IC50 in the experiment on HT29 cells was 52 nM; in experiment [1] it was 173 nM; in the experiment with OVCAR3 cells, 37 nM.

On to `O=C(Nc1cc2cccnc2c(N2CCC(F)(F)CC2)c1F)c1c(N2CCC3(CC2)CC3)cc(NS(=O)(=O)CCO)c2ccccc12` [Example 6, 2-{6-Azaspiro[2.5]octan-6-yl}-N-[8-(4,4-difluoropiperidin-1-yl)-7-fluoroquinolin-6-yl]-4-(2-hydroxyethanesulfonamido)naphthalene-1-carboxamide], for which the values for the IC50 (in the experiment with HT29 cells (setting [2]); in experiment [1]; with OVCAR3 cells (setting [3])) were 74 nM, 237 nM and 67 nM, respectively.

On to `Cc1cc(NC(=O)c2c(N3CCC4(CC3)CC4)cc(NS(=O)(=O)C(C)(C)CO)c3c2CCC3)nc(N2CCC(F)(F)CC2)n1` [Example 11, N-(2-(4,4-difluoropiperidin-1-yl)-6-methylpyrimidin-4-yl)-7-((2-hydroxy-1,1-dimethylethyl)sulfonamide)-5-(6-azaspiro[2.5]oct-6-yl)-2,3-dihydro-1H-indene-4-carboxamide], for which the IC50 in the experiment with HT29 cells (setting [2]) stood at 29 nM; in experiment [1] it was 170 nM; in the experiment on OVCAR3 cells (setting [3]), 20 nM.

For `Cc1cc(NC(=O)c2c(N3CCC4(CC3)CC4)cc(NS(=O)(=O)CCO)c3c2CCC3)nc(N2CCC(F)(F)CC2)n1` [Example 9, N-(2-(4,4-difluoropiperidin-1-yl)-6-methylpyrimidin-4-yl)-7-((2-hydroxyethyl)sulfonamido)-5-(6-azaspiro[2.5]oct-6-yl)-2,3-dihydro-1H-indene-4-carboxamide], the figures for the IC50 (with HT29 cells (setting [2]); in experiment [1]; in the experiment on OVCAR3 cells (setting [3])) were 37 nM, 176 nM and 26 nM, respectively.

For `Cc1cc(NC(=O)c2c(N3CCC4(CC3)CC4)cc(NS(=O)(=O)CCO)c3cccnc23)nc(N2CCC(F)(F)CC2)n1` [Example 8, N-(2-(4,4-difluoropiperidin-1-yl)-6-methylpyrimidin-4-yl)-5-((2-hydroxyethyl)sulfonamido)-7-(6-azaspiro[2.5]octan-6-yl)quinoline-8-carboxamide], the IC50 with HT29 cells (setting [2]) was over 1000 nM; in experiment [1], 280 nM; in the experiment with OVCAR3 cells (setting [3]) it was 488 nM.

On to `COc1cc(NC(=O)c2c(N3CCC4(CC3)CC4)cc(NS(=O)(=O)CCO)c3ccccc23)nc(N2CCC(F)(F)CC2)n1` [Example 7, 2-{6-Azaspiro[2.5]octan-6-yl}-N-[2-(4,4-difluoropiperidin-1-yl)-6-methoxypyrimidin-4-yl]-4-(2-hydroxyethanesulfonamido)naphthalene-1-carboxamide], for which the figures for the IC50 (in the experiment with HT29 cells (setting [2]); in experiment [1]; with OVCAR3 cells (setting [3])) were 123 nM, 635 nM and 98 nM, respectively.
